≈ marks a conversion by molar mass, not a printed value. Entries after “also recorded” stand apart in the source; their conditions may differ. Read-outs that look alike come from different tables or passages of the source. Each block holds one molecule with its values, some of them ahead of it.
Legend:
Heliothis virescens [1] = assay: Artificial diet feeding bioassay, mortality and growth inhibition in first-instar larvae; format: in vivo, Heliothis virescens (tobacco budworm); conditions: for insecticidal activity (in words): Heliothis virescens feeding; for EC50 (concentration causing 50% growth inhibition): Table 1, first-instar Heliothis virescens larvae, parentheses = 95% confidence limits; for EC50 (concentration causing 50% growth inhibition) / EC50: artificial diet; for LC50: Heliothis virescens, po; for EC50: Table 5, larval growth reduced to 50% of control, first instar Heliothis virescens, 95% confidence limits
Description: The results of the growth inhibitory and lethal activities of azadirachtin and these 8 derivatives when fed in an artificial diet to Heliothis virescens larvae are shown in Table 1. Similar to the results of Morgan, E. D., in "Natural pesticides from the Neem tree (Azadirachta indica A. Juss), Schmutterer, H., et al., Eds., Proc. First International Neem Conference (Rottach-Egern, 1980), German Agency for Technical Corporation,Eschborn, Germany, 1982, pps. 43-52 (hereinafter "Morgan"), neither deacetylation nor hydrogenation of the carbon-carbon double bond of the dihydrofuran ring moiety of azadirachtin had any significant effect on activity of the compound against H. virescens.
Mortality and growth inhibition in first-instar Heliothis
virescens larvae fed azadirachtin and eight derivatives in an
artificial diet (I. Kubo and J. A. Klocke, In: Plant Resistance to
Insects (P. A. Helin, Ed.), ACS Symposium Series 208, American Chemical
Society, Washington, D.C. (1983), pp. 329-346.).^a
^b LC50 values are the concentrations (ppm) causing 50%
^c EC50 values are the concentrations (ppm) causing 50% growth
^d Numbers in parentheses are the 95% confidence limits determined
using the methods of Litchfield and Wilcoxon, J. Pharmacol. Exp. Ther.
An artificial diet feeding bioassay with neonate larvae of tobacco budworm (Heliothis virescens) and fall armyworm (Spodoptera frugiperda) was used as previously described (Kubo and Klocke, 1983) to detect insecticidal activities in the plant extracts to monitor fractionation, and to determine the potency of the isolated constituents and derivatives. Potency was determined either as the effective concentration (EC50) of added material that is necessary to reduce larval growth to 50% of the control values or as the lethal concentration (LC50) of added material that is necessary to kill 50% of the treated larvae. EC50 and LC50 values were determined from log probit paper and analyzed statistically by the method of Litchfield and Wilcoxon, supra.

Heliothis virescens [2] = assay: Oral injection of fifth-instar larvae, pupal and adult development (non-irradiated compounds); format: in vivo
Method: (§1) Individual larvae were injected per os on the first day of the fifth instar with 1.0 μg of either irradiated or non-irradiated compounds dissolved in 1.0 μl of 75% aqueous ethanol.
Table 2: Successful and unsuccessful pupal and adult development of
fifthinstar Heliothis Virescens larvae injected orally with 1.0 microgram
of either azadirachtin, 3deacetylazadirachtin, 22,23dihydroazadirachtin,
or 2',3',22,23tetrahydroazadirachtin.

Heliothis virescens [3] = assay: Relative activity of UV-irradiated compounds in inhibiting pupal development of fifth-instar larvae; format: in vivo; conditions: for Relative activity, inhibition of pupal development: relative to non-irradiated counterpart
Method: (§2) Azadirachtin, 3-deacetylazadirachtin, 22,23-dihydroazadirachtin, and 2',3',22,23-tetrahydroazadirachtin (1.0 mg/ml absolute ethanol) were placed individually in capped quartz NMR tubes (5×180 mm) and were irradiated with two UV germicidal lights (GE, G30T8, 200-280 nm, 30W) 1.8 m from the source at room temperature for up to 400 h. The controls were identical samples protected from exposure to UV radiation by wrapping with aluminum foil. At selected time intervals, aliquots from both the controls (non-irradiated) and irradiated samples were removed for high-performance liquid chromatography (HPLC) analysis and bioassay (vide infra).
as §1
Table 3: Relative activity of azadirachtin, 3deacetylaza-dirachtin,
22,23dihydroazadirachtin, and 2',3',22,23tetrahydroazadirachtin, all of
which had been exposed for 15, 30, 90, 200, and 400 hours to UV radiation
inhibiting the pupal development of fifthinstar Heliothis virescens
(§3) larvae. Relative activity is defined as the percentage of larvae injected

Heliothis virescens [4] = assay: Relative activity of UV-irradiated compounds in inhibiting adult development of fifth-instar larvae; format: in vivo; conditions: for Relative activity, inhibition of adult development: relative to non-irradiated counterpart
Method: as §2, §1
Table 4: Relative activity of azadirachtin, 3deacetylaza-dirachtin,
22,23dihydroazadirachtin, 2',3',22,23tetrahydroaza-dirachtin, all of whic
had been exposed for 15, 30, 90, 200, and 400 hours to UV radiation, in
inhibiting the adult development of fifthinstar Heliothis virescens
as §3
relative to the percentage injected with its nonirradiated counterpart

[5] = UV stability in ethanol by reversed phase HPLC; format: physicochemical
Method: Stability of Azadirachtin derivatives was determined as follows:
as §2
Analytical reversed phase HPLC was performed on a phenyl (5μm) column run isocratically with acetonitrile-water (3:7) (Yamasaki et al.) Peaks were detected at 214 nm. The irradiated samples were compared with their corresponding non-UV-irradiated controls by measuring the height of the peak eluting at the appropriate Rt for each irradiated compound relative to each one's non-irradiated control. Results are expressed as the percent of the initial sample concentration remaining relative to the control. Each time point was done in at least triplicate fashion.

[6] = 1.0 microgram injected orally, fifth-instar, non-irradiated
[7] = 1.0 microgram injected orally, % of larvae

degradation following 200 h of exposure to UV radiation (in words) [5]: no degradation | UV lability (in words) ([5]; UV irradiation, HPLC): not UV-labile
Compound: CCC(C)C(=O)OC1CC(OC(C)=O)C2(C(=O)OC)COC3C2C12COC(O)(C(=O)OC)C2C(C)(C12OC1(C)C1CC2OC2OCCC21O)C3O (stereo not drawn) [2',3',22,23-tetrahydroazadirachtin]
insecticidal activity (in words) (Heliothis virescens [1]): full activity; also recorded: fully active | EC50 (concentration causing 50% growth inhibition) (Heliothis virescens [1]): 0.08 (0.05-0.13) ppm | Number Adults (Heliothis virescens [2]; [6]): 0 Number | Number Adults Deformed (Heliothis virescens [2]; [6]): 0 Number | Unsuccessful Larvae-Pupae (number) (Heliothis virescens [2]; [6]): 6 Number | Unsuccessful Pupae-Adult (number) (Heliothis virescens [2]; [6]): 1 Number | Adults (%) (Heliothis virescens [2]; [7]): 0% | Adults Deformed (%) (Heliothis virescens [2]; [7]): 0% | Pupae (%) (Heliothis virescens [2]; [7]): 7.4% | Unsuccessful Larvae-Pupae (%) (Heliothis virescens [2]; [7]): 4.4% | Unsuccessful Pupae-Adult (%) (Heliothis virescens [2]; [7]): 0.7% | inhibition of pupation (in words) (Heliothis virescens [2]; non-irradiated, 1.0 μg per os): equally effective | Relative activity, inhibition of pupal development (Heliothis virescens [3]; 15 h UV exposure): 99.4% | Relative activity, inhibition of pupal development (Heliothis virescens [3]; 30 h UV exposure): 103.7% | Relative activity, inhibition of pupal development (Heliothis virescens [3]; 90 h UV exposure): 99.7% | ability to inhibit pupation after UV (in words) (Heliothis virescens [3]; 200 h UV): most active in inhibiting pupation | Relative activity, inhibition of pupal development (Heliothis virescens [3]; 200 h UV exposure): 108.0% | ability to inhibit pupation after UV (in words) (Heliothis virescens [3]; 400 h UV): some loss in activity; also recorded: still more active than the other test compounds | Relative activity, inhibition of pupal development (Heliothis virescens [3]; 400 h UV exposure): 69.1% | Relative activity, inhibition of adult development (Heliothis virescens [4]; 15 h UV exposure): 100.0% | Relative activity, inhibition of adult development (Heliothis virescens [4]; 30 h UV exposure): 100.0% | Relative activity, inhibition of adult development (Heliothis virescens [4]; 90 h UV exposure): 100.0% | Relative activity, inhibition of adult development (Heliothis virescens [4]; 200 h UV exposure): 100.0% | ability to inhibit larvae from reaching the adult stage after UV (in words) (Heliothis virescens [4]; 400 h UV): fully active | Relative activity, inhibition of adult development (Heliothis virescens [4]; 400 h UV exposure): 100.0%

Compound: C/C=C(\C)C(=O)OC1CC(OC(C)=O)C2(C(=O)OC)COC3C2C12COC(OC(C)=O)(C(=O)OC)C2C(C)(C12OC1(C)C1CC2OC2OC=CC21O)C3O (stereo not drawn) [11-O-acetylazadirachtin]
LC50 (Heliothis virescens [1]; read-out: LC50 (concentration causing 50% mortality)): 0.95 µg/mL (≈ 1.25 µM) | EC50 (concentration causing 50% growth inhibition) (Heliothis virescens [1]): 0.18 (0.08-0.40) ppm

Compound: CC(=O)C1C2(CO)C(O)CC(O)C3(C)COC(C32)C(O)C1(C)C12OC1(C)C1CC2OC2OC=CC21O (stereo not drawn) [Compound 14, decinnamoylmelianolone]
insecticidal activity (in words) (Heliothis virescens [1]): did not show good activity | LC50 (Heliothis virescens [1]): 10 µg/mL (≈ 19.7 µM) | EC50 (Heliothis virescens [1]): 3.20 ppm

Compound: CC(=O)C1C2(CO)C(OC(=O)/C=C/c3ccccc3)CC(O)C3(C)COC(C32)C(O)C1(C)C12OC1(C)C1CC2OC2OC=CC21O (stereo not drawn) [Compound 10, 1-cinnamoylmelianolone]
insecticidal activity (in words) (Heliothis virescens [1]): approximately half that of azadirachtin | LC50 (Heliothis virescens [1]): 1.5 µg/mL (≈ 2.35 µM) | EC50 (Heliothis virescens [1]): 0.12 ppm

Compound: COC(=O)C1(O)OCC23C(OC(=O)C(C)(O)C(C)O)CC(OC(C)=O)C4(C(=O)OC)COC(C42)C(O)C(C)(C24OC2(C)C2CC4OC4OCCC42O)C13 (stereo not drawn) [2',3'-dihydroxy-2',3',22,23-tetrahydroazadirachtin]
EC50 (concentration causing 50% growth inhibition) (Heliothis virescens [1]): 3.80 (1.95-7.41) ppm
